These results are taken from US20100254965A1, “Adenosine Signaling in Diagnosis, Treatment, and Prevention of Priapism and Erectile Dysfunction” (BOARD OF REGENTS ,THE UNIVERSITY OF TEXAS SYSTEM, priority 2006, published 2010).

Test [1] has as its system corpus cavernosal smooth muscle cells (CCSM). In words: cAMP production in primary corpus cavernosal / penile vascular smooth muscle cells (CCSM, PVSM). In kind it is cell-based, mouse. Conditions: 10 min. How it is done: PVSM were isolated and cultured from mouse penes. The cells were be switched to serum-free medium and treated with different concentrations of adenosine with or without A2B antagonist (MRS1706-1 μM) or A2A agonist (CGS-21680-1 μM) alone for 10 min. Then cellular extracts were collected and cAMP levels were measured using an ELISA kit. The data represent mean±SE.
Data are presented as mean±SE. *, p<0.01.
(§1) FIG. 18. Adenosine stimulated both cAMP and cGMP induction in corpus cavernosal smooth muscle cells (CCSM) via A2BR activation. (a) Adenosine receptor expression profile in purified primary CCSM. CCSM were purified from adult mouse penes. […] (b) CCSM were isolated and cultured from mouse penes. The cells were switched to serum-free medium and treated with different concentrations of adenosine with or without A2BR antagonist (MRS1706-10 μM), A2AR antagonist (ZM241385-50 nM) or A2AR agonist (CGS-21680-10 μM) alone for 10 min. Then cellular extracts were collected and cAMP levels were measured using an ELISA kit. The data represent mean±SE. *p<0.05, adenosine treated versus the untreated; **p<0.05, adenosine plus MRS1706 or ZM241385 versus the adenosine treated. (c) CCSM were isolated from penes of the wild type and A2BR-deficient mice and cultured with or without adenosine (100 μM), NECA (10 μM), a potent adenosine receptor agonist, forskolin (10 μM), an adenylyl cyclase agonist. After 10 min treatment, the cellular extracts were collected and cAMP levels were measured by using a commercial enzyme immunoassay kit (Amersham Pharmacia). N=4. *p<0.05, adenosine, forskolin and NECA treated versus the untreated control. (d) Corpus cavernosal strips (CCS) were isolated from wild type and A2BR-deficient mice and treated with different concentrations of adenosine in the presence or absence of L-NAME (100 μM) or MRS1706 (10 μM). 10 min after treatment, cellular extracts were collected and cGMP levels were measured by using a commercial enzyme immunoassay kit (Amersham Pharmacia). Data are expressed as mean±SE. *p<0.05, adenosine treated versus the control; **p<0.05, adenosine treated with MRS1706 versus the adenosine treated; ***p<0.05, CCS of A2BR-deficient mice treated with adenosine versus the CCS of wild type mice treated with adenosine. N=6-7. (e) CCSM were isolated from wild type and A2BR deficient mice and cultured with or without adenosine (100 μM), NECA (10 μM), a potent adenosine receptor agonist, forskolin (10 μM), an adenylyl cyclase agonist, or diethylamine-NONOate (DEA/NO) (10 μM). After 10 min treatment, the cellular extracts were collected and cAMP levels were measured by using a commercial enzyme immunoassay kit (Amersham Pharmacia). N=4. *p<0.05, DEA/NO treated versus to the untreated control. (f) Both cAMP and cGMP induction contribute to adenosine-mediated decreased PE-induced phosphorylation of myosin light chain (MLC). CCSM and CCS were isolated and cultured with the treatment of phenylephrine (PE-10 μM) in the presence or absence of adenosine (100 μM) or L-NAME (100 μM). 10 min after treatment, cellular extracts were isolated and western blot analysis were performed. The total MLC and phosphorylated MLC at S20 were detected by specific antibodies.
(§2) Isolation of primary corpus cavernosal smooth muscle cells (CCSM). Corpus cavernosum tissues were dissected as described above. Cavernosal tissue was washed in PBS and minced into […] pieces. Segments were incubated in 5-10 ml enzyme solutions containing 0.02% collagenase A (0.272 U/mg protein, Roche, Mannheim, Germany) and 0.5% elastase (3.73 U/mg protein, Cell system, St Katharinen, Germany) in a 75 mm flask at 37° C. for 6 hours. Enzymatic digestion was terminated by adding 10 ml DMEM supplemented with 10% fetal calf serum (FCS). […]

The test system is the same in test [2]. In words: cGMP levels in primary CCSM / PVSM. In kind it is cell-based, mouse. The note with it: CCSM/PVSM of both wild type and A2BR deficient mice, 10 min.
From the text: Results for wild-type and A2B^−/− mouse were statistically significant, p<0.01.
as §1, with “After 10 min treatment, the cellular extracts were collected and cAMP levels were measured by using a commercial enzyme immunoassay kit (Amersham Pharmacia).” left out
as §2
Tissue and corpus cavernosum smooth muscle cell (CCSM) cAMP and cGMP measurement. Quantitative assays for cAMP and cGMP were performed by using a commercial enzyme immunoassay kit (Amersham Pharmacia). […]

Test [3] concerns corpus cavernosal strips (CCS). In words: Adenosine-induced relaxation of corpus cavernosal strips (CCS). In kind it is cell-based, mouse. Conditions: CCS of wild type mice, DCF 5 μM or 0-100 uM with adenosine 100 μM; listed as DCF. Here is the method: FIG. 16. […] CCS of wild type mice were treated with different concentrations of adenosine with or without DCF (5 μM), a specific inhibitor of adenosine deaminase. Then the extent (mN) of force was monitored. (b) CCS of wild type mice were treated with 100 μM adenosine in the presence of different concentrations of DCF (0-100 uM). Then the extent of force was measured. Data are expressed as mean±SE. *p<0.05, adenosine treated versus the control, **p<0.05, DCF treated versus the adenosine treated.
FIG. 17. A2BR signaling is required for adenosine-mediated corpus cavernosal strips (CCS) relaxation. (a) CCS of wild type mice were treated with different concentrations of theophiline (1-10 μM) in the presence or absence of adenosine (100 μM). The force changes were measured by force transducer. Data are expressed as mean±SE. *p<0.05, adenosine treated versus the control, **p<0.05, theophiline treated versus the untreated, N=5. (b) CCS from wild type, A2AR, A1R A2BR and A3R-deficient mice were treated with different concentrations of adenosine. The relaxation was measured by force transducer. Data are expressed as mean±SE. *p<0.05, adenosine treated versus the wild type. (c) CCS were isolated from wild type and A2BR-deficient mice and treated with different concentrations of adenosine in the presence or absence of L-NAME (100 μM) or MRS1706 (10 μM). 10 min after treatment, cellular extracts were collected and cAMP levels were measured by using a commercial enzyme immunoassay kit (Amersham Pharmacia). Data are expressed as mean±SE. *p<0.05, adenosine treated versus the control without treatment; **p<0.05, adenosine treated with MRS1706 versus the adenosine treated alone; ***p<0.05, CCS of A2BR-deficient mice treated with adenosine versus the CCS of wild type mice treated with adenosine. N=6-7. (d) CCS of A2BR and ADA double deficient mice lost the hypersensitivity to nerve stimulation compared to ADA deficient mice.
Function experiments. The tunica albuginea was cut longitudinally, starting at the most proximal point of the corpus cavernosum (CC) toward the penile shaft, and the erectile tissue was partially dissected free from the tunica. One strip of tissue (0.3×0.3×3 mm) was obtained from each corpus cavernosum. The contractility of each isolated corpus cavernosum smooth muscle cells (CCSM) strip was measured using an isometric force transducer (AD Instrument Inc., Georgia, Vt., USA). The strip was mounted in a thermostatically controlled tissue bath containing aerated PSS (mM: 119 NaCl, 4.7 KCl, 24 NaHCO 3, 1.2 KH2PO4, 2.5 CaCl2, 1.2 MgSO4, 0.023 EDTA, and 11 glucose; 5 ml volume, 95% O2 and 5% CO2, 37° C.) and stretched to a resting tension of 0.1 mN. The contractile responses of the strips were analysed by adding 10 μM phenylephrine to the bath, and force changes were recorded in response to drug application and to electrical field stimulation. The particular electrical field stimulation parameters of 0-30V, 30 HZ with a pulse width of approximately 0.5 ms, are commonly used in the mice. […] The changes of cAMP and cGMP contents in CC strips were subsequently measured by commercial enzyme immunoassay kit (Amersham Pharmacia) (see below).

The test system of test [4] is corpus cavernosum of wild type, A2A-deficient and A2B-deficient mice. Nature of the test: Intracavernous injection of adenosine: intracavernous pressure (ICP) and penile erection. The note with it: wild type mice. In kind it is in vivo, mouse. How it is done:
FIG. 6. Different amounts of adenosine were injected into the corpus cavernosum of wild type, adenosine receptor A2A-deficient, and adenosine receptor A2B-deficient mice and the resulting change in ICP determined.
Methods: ADA-deficient mice and SCD transgenic mice, a well accepted priapism animal model, are the only animals known in which a persistent and prolonged penile erection occurs spontaneously. […] We have measured intracavernosal pressure and corpus cavernosal strip (CCS) relaxation with or without PEG-ADA treatment and/or a series of adenosine receptor antagonists or agonists in wild type ADA-deficient mice, and corpus cavernosal strip (CCS) relaxation with or without PEG-ADA treatment and/or a series of adenosine receptor antagonists or agonists in SCD transgenic mice, in response to nerve stimulation. We have also measured the intracavernosal pressure and CCS relaxation with or without adenosine treatment in wild type and multiple adenosine receptor deficient mice.

Setting [5] is: wild type CCSM/PVSM, agent alone.

The structures appear in SMILES notation. Entries after “also recorded” stand apart in the source; their conditions may differ.

With `CCNC(=O)[C@H]1O[C@@H](n2cnc3c(N)nc(NCCc4ccc(CCC(=O)O)cc4)nc32)[C@H](O)[C@@H]1O` [CGS21690C], in test [1] (setting [5]), the cAMP production result was “failed to induce cAMP production”.

Take `CCNC(=O)[C@H]1O[C@@H](n2cnc3c(N)ncnc32)[C@H](O)[C@@H]1O` [NECA, 5′-N-ethylcarbosamide adenosine]: the cGMP levels result in test [2] was “lack of significant differences in cGMP production; also recorded: had no effect”. Further, the cAMP production result in test [1] (CCSM/PVSM of A2BR deficient (A2B-/-) mice) is given as “essentially no effect on cAMP levels; also recorded: failed to induce cAMP production”; in test [1] (setting [5]), “elevate cAMP levels; also recorded: induced cAMP”.

On to `OC[C@H]1O[C@@H](n2cnc3c2NC=NC[C@H]3O)C[C@@H]1O` [deoxycoformycin], for which, in test [3], the “adenosine-induced CCS relaxation with ADA inhibitor versus adenosine alone” value is on record as “significantly increased relaxation compared with adenosine alone; also recorded: increased the adenosine induced relaxation of CCS”. In test [4] (co-injected with adenosine), the “adenosine-induced penile erection with ADA inhibitor” value is given as “prolonged”. In addition, the “adenosine-induced increase in pressure (ICP) with ADA inhibitor” value in test [4] (coinjection with adenosine) is on record as “prolonged the adenosine-induced increase in pressure”.

Take `CCN(CC)/[N+]([O-])=N/O.CCNCC` [DEA/NO, diethylamine-NONOate]: the cGMP levels result is “induced cGMP production” in test [2] and “comparable high levels of cGMP production” in test [2] (listed as diethylamine-NONOate).
